Source: patent US6956113B2 (priority 2000, dated 2005)

Tested on: bioluminescent Salmonella tester strains (his- cells)

For `[N-]=[N+]=[N-]` [NaN, sodium azide], the “bioluminescent revertants after independent exposure (mutagenicity)” value was “detection of bioluminescent revertants”.
